Measurements published in patent US4855320A, “5-arylalkyl-4-alkoxy-2(5H)-furanones, intermediates and processes for the preparation thereof and medicaments containing them” (Dr. Willmar Schwabe GmbH & Company, priority 1986, dated 1989).

System: maximum electroshock spasm (MES) in male mice (NMRI)
Test: MES test (maximum electroshock spasm), inhibition of the extensor spasm
Format: in vivo
Conditions: Mus musculus, mice; for responders at 100 mg/kg: 100 mg/kg p.o., % of animals protected 100% against the extensor spasm; for ED50: oral, 1 hour after administration, read-out: ED 50 in the MES test; for responders at 50 mg/kg: 50 mg/kg p.o.
[1] = po, 1 hr., read-out: protective action after 1 hr. (MES test)

SMILES | responders at 100 mg/kg [1] [%] | also measured
CCOC1=CC(=O)O[C@H]1[C@H](O)c1ccccc1Cl (relative stereo) [Example 66, threo-5-(2-chlorophenylhydroxymethyl)-4-ethoxy-2(5H)-furanone] | 100 | 
COC1=CC(=O)O[C@H]1[C@H](O)c1ccc(Cl)cc1 (relative stereo) [Example 67, threo-5-(4-chlorophenylhydroxymethyl)-4-methoxy-2(5H)-furanone] | 75 | ED50: 73.5 mg/kg
COC1=CC(=O)O[C@H]1[C@H](O)c1ccccc1Br (relative stereo) [Example 68, threo-5-(2-bromophenylhydroxymethyl)-4-methoxy-2(5H)-furanone] | 100 | ED50: 23.5 mg/kg
COC1=CC(=O)O[C@H]1[C@H](O)c1cccc(Br)c1 (relative stereo) [Example 69, threo-5-(3-bromophenylhydroxymethyl)-4-methoxy-2(5H)-furanone] | 70 | ED50: 93 mg/kg
COC1=CC(=O)O[C@H]1[C@H](O)c1ccccc1F (relative stereo) [Example 70, threo-5-(2-fluorophenylhydroxymethyl)-4-methoxy-2(5H)-furanone] | 100 | ED50: 22 mg/kg
COC1=CC(=O)O[C@H]1[C@H](O)c1ccccc1C(F)(F)F (relative stereo) [Example 71, threo-4-methoxy-5-(2-trifluoromethylphenylhydroxymethyl)-2-(5H)-furanone] | 100 | 
COC1=CC(=O)O[C@H]1[C@H](O)c1cccc(C(F)(F)F)c1 (relative stereo) [Example 72, threo-4-methoxy-5-(3-trifluoromethylphenylhydroxymethyl)-2(5H)-furanone] | 80 | 
COC1=CC(=O)O[C@H]1[C@H](O)c1ccc(C(F)(F)F)cc1 (relative stereo) [Example 73, threo-4-methoxy-5-(4-trifluoromethylphenylhydroxymethyl)-2(5H)-furanone] | 60 | 
COC1=CC(=O)O[C@H]1[C@H](O)c1ccccc1[N+](=O)[O-] (relative stereo) [Example 74, threo-4-methoxy-5-(2-nitrophenylhydroxymethyl)-2(5H)-furanone] | 100 | 
CCOC1=CC(=O)O[C@H]1[C@H](O)c1ccc(Cl)cc1Cl (relative stereo) [Example 80, threo-5-(2,4-dichlorophenylhydroxymethyl)-4-ethoxy-2(5H)-furanone] | 90 | 
CCOC1=CC(=O)O[C@H]1[C@H](O)c1cc(Cl)ccc1Cl (relative stereo) [Example 82, threo-5-(2,5-dichlorophenylhydroxymethyl)-4-ethoxy-2(5H)-furanone] |  | responders at 150 mg/kg (po, 150 mg/kg p.o., 1 hr., read-out: protective action after 1 hr. (MES test)): 90%
COC1=CC(=O)O[C@H]1[C@H](O)c1ccc(Cl)c(Cl)c1 (relative stereo) [Example 83, threo-5-(3,4-dichlorophenylhydroxymethyl)-4-methoxy-2(5H)-furanone] | 50 | 
COC1=CC(=O)O[C@H]1[C@H](O)c1cc(Cl)cc(Cl)c1 (relative stereo) [Example 84, threo-5-(3,5-dichlorophenylhydroxymethyl)-4-methoxy-2(5H)-furanone] | 70 | 
COC1=CC(=O)O[C@H]1[C@H](O)c1cc(C(F)(F)F)ccc1Cl (relative stereo) [Example 86] |  | responders at 50 mg/kg [1]: 100%
COC1=CC(=O)O[C@H]1[C@H](O)c1ccc(Cl)cc1C(F)(F)F (relative stereo) [Example 87, threo-5-[(4-chloro-2-trifluoromethylphenyl)-hydroxymethyl]-4-methoxy-2(5H)-furanone] | 40 | 
COC1=CC(=O)O[C@H]1[C@H](O)c1ccc(Br)cc1Cl (relative stereo) [Example 88, threo-5-[(4-bromo-2-chlorophenyl)-hydroxymethyl]-4-methoxy-2(5H)-furanone] | 80 | 
COC1=CC(=O)O[C@@]1(C)[C@H](O)c1ccccc1Cl (relative stereo) [Example 89, threo-5-(2-Chlorophenylhydroxymethyl)-4-methoxy-5-methyl-2(5H)-furanone] | 100 | 
COC1=CC(=O)O[C@H]1[C@H](O)c1ccccc1C (relative stereo) [Example 93, threo-4-methoxy-5-(2-methylphenylhydroxymethyl)-2(5H)-furanone] | 37.5 | 
COC1=CC(=O)O[C@H]1[C@H](O)c1cccc(F)c1 (relative stereo) [Example 96, threo-5-(3-fluorophenylhydroxymethyl)-4-methoxy-2-(5H)-furanone] | 62.5 | ED50: 74 mg/kg
COC1=CC(=O)O[C@H]1[C@H](O)c1cccc(Cl)c1 (relative stereo) [Example 98, threo-5-(3-chlorophenylhydroxymethyl)-4-methoxy-2(5H)-furanone] | 25 | ED50: 84.5 mg/kg

SMILES | responders at 100 mg/kg [1] [%] | also measured
CCCOC1=CC(=O)O[C@H]1[C@H](O)c1ccccc1Cl (relative stereo) [Example 99, threo-5-(2-chlorophenylhydroxymethyl)-4-propoxy-2-(5H)-furanone] | 90 | 
COC1=CC(=O)O[C@H]1[C@H](O)c1ccc(Br)cc1 (relative stereo) [Example 100, threo-5-(4-bromophenylhydroxymethyl)-4-methoxy-2(5H)-furanone] | 100 | ED50: 67 mg/kg
COC1=CC(=O)O[C@H]1[C@H](O)c1c(F)cccc1Cl (relative stereo) [Example 102, threo-5-(2-chloro-6-fluorophenylhydroxymethyl)-4-methoxy-2(5H)-furanone] | 62.5 | 
COC1=CC(=O)O[C@H]1[C@H](O)c1c(Cl)cccc1Cl (relative stereo) [Example 103, threo-5-(2,6-dichlorophenylhydroxymethiyl)-4-methoxy-2(5H)-furanone] | 100 | ED50: 37 mg/kg
COC1=CC(=O)O[C@H]1[C@H](O)CCc1ccccc1 (relative stereo) [Example 105, threo-4-methoxy-5-(α-hydroxy-γ-phenylpropyl)-2(5H)-furanone] | 12.5 | 
CCOC1=CC(=O)O[C@H]1[C@H](OC)c1ccc(Cl)cc1Cl (relative stereo) [Example 106, threo-4-Ethoxy-5-[methoxy-(2,4-dichlorophenyl)-methyl]-2(5H)-furanone] | 30 | 
COCO[C@H](c1ccccc1Cl)[C@@H]1OC(=O)C=C1OC (relative stereo) [Example 107, threo-4-Methoxy-5-[methoxymethoxy-(2-chlorophenyl)-methyl]-2(5H)-furanone] | 100 | ED50: 24.5 mg/kg
COCCOCO[C@H](c1ccccc1Cl)[C@@H]1OC(=O)C=C1OC (relative stereo) [Example 108, threo-4-Methoxy-5-[methoxyethoxymethoxy-(2-chlorophenyl)-methyl]-2(5H)-furanone] | 70 | 
COC1=CC(=O)O[C@H]1[C@H](OC)c1ccccc1 (relative stereo) [Example 109, threo-4-methoxy-5-[methoxy-(phenyl)-methyl]-2(5H)-furanone] | 40 | 
COC1=CC(=O)O[C@H]1[C@H](OC)c1ccccc1Cl (relative stereo) [Example 110, threo-4-methoxy-5-[methoxy-(2-chlorophenyl)-methyl]-2(5H)-furanone] | 100 | ED50: 27.5 mg/kg
COC1=CC(=O)O[C@H]1[C@H](OC)c1ccc(Cl)cc1Cl (relative stereo) [Example 111, threo-4-methoxy-5-[methoxy-(2,4-dichlorophenyl)-methyl]-2(5H)-furanone] | 100 | 
COC1=CC(=O)O[C@H]1[C@H](OC)c1cc(Cl)ccc1Cl (relative stereo) [Example 112, threo-4-methoxy-5-[methoxy-(2,5-dichlorophenyl)-methyl]-2(5H)-furanone] | 100 | 
COCO[C@H](c1ccccc1)[C@@H]1OC(=O)C=C1OC (relative stereo) [Example 113, threo-4-methoxy-5-[methoxymethoxy-(phenyl)-methyl]-2(5H)-furanone] | 100 | 
COCO[C@H](c1ccc(Cl)cc1Cl)[C@@H]1OC(=O)C=C1OC (relative stereo) [Example 114, threo-4-methoxy-5-[methoxymethoxy-(2,4-dichlorophenyl)-methyl]-2(5H)-furanone] | 10 | 
COCO[C@H](c1ccccc1F)[C@@H]1OC(=O)C=C1OC (relative stereo) [Example 115, threo-4-methoxy-5-[methoxymethoxy-(2-fluorophenyl)-methyl]2(5H)-furanone] | 100 | 
COCO[C@H](c1ccccc1C)[C@@H]1OC(=O)C=C1OC (relative stereo) [Example 116, threo-4-methoxy-5-[methoxymethoxy-(2-methylphenyl)-methyl]-2(5H)-furanone] | 70 | 
COCO[C@H](c1ccccc1Br)[C@@H]1OC(=O)C=C1OC (relative stereo) [Example 118, threo-4-methoxy-5-[methoxymethoxy-(2-bromophenyl)-methyl]-2(5H)-furanone] | 100 | 
COC1=CC(=O)O[C@H]1[C@H](OC)c1ccccc1F (relative stereo) [Example 123, threo-4-methoxy-5-[methoxy-(2-fluorophenyl)-methyl]-2(5H)-furanone] |  | responders at 50 mg/kg [1]: 100%
COC1=CC(=O)O[C@H]1[C@H](OC)c1ccccc1Br (relative stereo) [Example 124, threo-4-methoxy-5-[methoxy-(2-bromophenyl)-methyl]-2(5H)-furanone] |  | responders at 50 mg/kg [1]: 100%
COCC(OC)O[C@H](c1ccccc1Cl)[C@@H]1OC(=O)C=C1OC (stereo partly drawn) [Example 121, threo-5-[1',2'-dimethoxyethoxy-(2-chlorophenyl)-methyl]-4-methoxy-2(5H)-furanone] |  | responders at 50 mg/kg [1]: 70%
